Assays:
[1] = target: T1, recombinant human CYP11B2 (Homo sapiens, UniProt P19099); assay: CYP11B2 enzyme assay with enzyme enriched microsomes, aldosterone measured by LC-MS; type: biochemical; conditions: microsomes from V79-4 cells; 11-deoxycorticosterone at Km; read-out: hCYP11B2 IC50
T1 construct: made in house; host or cells: V79-4 cells (Chinese hamster lung fibroblasts); enzyme-enriched microsomal fraction of the lysate
T1 sequence (P19099 25-503): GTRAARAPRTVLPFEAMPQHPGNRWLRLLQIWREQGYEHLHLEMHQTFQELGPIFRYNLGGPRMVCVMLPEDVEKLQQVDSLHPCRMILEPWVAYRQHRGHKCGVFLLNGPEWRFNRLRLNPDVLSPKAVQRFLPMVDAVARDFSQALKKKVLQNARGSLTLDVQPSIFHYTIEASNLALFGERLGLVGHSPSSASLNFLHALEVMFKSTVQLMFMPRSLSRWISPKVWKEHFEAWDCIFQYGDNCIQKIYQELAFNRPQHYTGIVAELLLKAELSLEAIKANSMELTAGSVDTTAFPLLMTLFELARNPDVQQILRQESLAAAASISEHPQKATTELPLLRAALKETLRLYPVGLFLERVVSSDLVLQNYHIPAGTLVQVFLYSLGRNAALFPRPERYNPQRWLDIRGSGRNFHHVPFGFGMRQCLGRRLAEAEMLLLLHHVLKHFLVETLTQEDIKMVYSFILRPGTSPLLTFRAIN
Protocol: (§1) V79-4 cells expressing recombinant andrenodoxin and andrenodoxin reductase with either recombinant human CYP11B2 or CYP11B1 were prepared according to methods previously described (LaSala et al 2009 Anal Bioch 394:56-61). An enzyme enriched microsomal fraction was prepared from cellular lysates and subsequently used as the enzyme source for determining inhibitor IC50s. The substrate Km values were experimentally determined for 11-deoxycorticosterone (CYP11B2 substrate) and 11-deoxycortisol (CYP11B1 substrate). Enzyme assays for inhibitor screening employed CYP11B2 and CYP11B1 enzyme enriched microsomes and were run at the Km of the respective substrates. Products of the enzyme reactions, aldosterone for CYP11B2 or cortisol for CYP11B1, were measured by LC-MS. Assays were run under conditions of less than 20% substrate turnover. Inhibitor IC50s were generated by determining the product formation in the absence or presence of inhibitor at various concentrations. In the absence of the test compound, the product formed (Pt) in each data set was defined as 100% activity. In the absence of enzyme, the product formed (Pb) in each data set was defined as 0% activity. The percent activity in the presence of each inhibitor was calculated according to the following equation: % activity=(P−Pb)/(Pt−Pb), where P=the product formed in the presence of the inhibitor. The IC50 value was defined as the inhibitor concentration causing a 50% decrease in activity relative to the no inhibitor control reaction.

[2] = target: T2, recombinant human CYP11B1 (Homo sapiens, UniProt P15538); assay: CYP11B1 enzyme assay with enzyme enriched microsomes, cortisol measured by LC-MS; type: biochemical; conditions: microsomes from V79-4 cells; 11-deoxycortisol at Km; read-out: hCYP11B1 IC50
T2 construct: made in house; host or cells: V79-4 cells (Chinese hamster lung fibroblasts); enzyme-enriched microsomal fraction of the lysate
T2 sequence (P15538 25-503): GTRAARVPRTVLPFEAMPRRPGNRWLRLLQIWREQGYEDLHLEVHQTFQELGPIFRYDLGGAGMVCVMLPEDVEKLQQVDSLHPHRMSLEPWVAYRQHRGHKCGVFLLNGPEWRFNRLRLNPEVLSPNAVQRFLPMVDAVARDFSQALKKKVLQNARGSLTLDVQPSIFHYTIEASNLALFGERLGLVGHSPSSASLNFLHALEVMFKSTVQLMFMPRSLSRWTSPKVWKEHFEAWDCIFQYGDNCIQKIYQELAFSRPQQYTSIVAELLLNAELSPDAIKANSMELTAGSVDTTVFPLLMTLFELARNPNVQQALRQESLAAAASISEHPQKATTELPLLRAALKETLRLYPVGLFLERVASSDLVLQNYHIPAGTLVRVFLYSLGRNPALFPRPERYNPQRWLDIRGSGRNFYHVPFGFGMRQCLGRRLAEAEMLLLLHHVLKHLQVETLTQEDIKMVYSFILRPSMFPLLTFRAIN
Protocol: as §1

Row | Compound | IC50 [1] [nM] | IC50 [2] [nM]
1 | Fc1ccc2nc(-n3cnc4ccccc43)n(C3CC3)c2c1 [Example 1, 1′-cyclopropyl-6′-fluoro-1′H-1,2′-bibenzo[d]imidazole] | 1 to 100 | 100 to 1000
2 | Fc1ccc2nc(-n3cnc4ccccc43)n(C3CC3)c2c1F [Example 2, 1′-cyclopropyl-6′,7′-difluoro-1′H-1,2′-bibenzo[d]imidazole] | 1 to 100 | 1000 to 10000
3 | Fc1ccc2nc(-n3cnc4c(F)c(F)ccc43)n(C3CC3)c2c1 [Example 3, 1′-cyclopropyl-4,5,6′-trifluoro-1′H-1,2′-bibenzo[d]imidazole] | 1000 to 10000 | > 10000
4 | Fc1ccc2nc(-n3cnc4cc(F)c(F)cc43)n(C3CC3)c2c1 [Example 4, 1′-cyclopropyl-5,6,6′-trifluoro-1′H-1,2′-bibenzo[d]imidazole] | 1 to 100 | 1000 to 10000
5 | COc1cc2ncn(-c3nc4ccc(F)cc4n3C3CC3)c2cc1OC [Example 5, 1′-cyclopropyl-6′-fluoro-5,6-dimethoxy-1′H-1,2′-bibenzo[d]imidazole] | 1 to 100 | 1000 to 10000
6 | N#Cc1ccc2c(c1)ncn2-c1nc2ccc(F)cc2n1C1CC1 [Example 6, 1′-cyclopropyl-6′-fluoro-1′H-[1,2′-bibenzo[d]imidazole]-5-carbonitrile] | 1 to 100 | 1000 to 10000
7 | N#Cc1ccc2ncn(-c3nc4ccc(F)cc4n3C3CC3)c2c1 [Example 7, 1′-cyclopropyl-6′-fluoro-1′H-[1,2′-bibenzo[d]imidazole]-6-carbonitrile] | 100 to 1000 | > 10000
8 | Cc1ccc2c(c1)ncn2-c1nc2ccc(F)cc2n1C1CC1 [Example 8, 1′-cyclopropyl-6′-fluoro-5-methyl-1′H-1,2′-bibenzo[d]imidazole] | 1 to 100 | 100 to 1000
9 | Cc1ccc2ncn(-c3nc4ccc(F)cc4n3C3CC3)c2c1 [Example 9, 1′-cyclopropyl-6′-fluoro-6-methyl-1′H-1,2′-bibenzo[d]imidazole] | 1 to 100 | 100 to 1000
10 | CCc1ccc2c(c1)ncn2-c1nc2ccc(F)cc2n1C1CC1 [Example 10, 1′-cyclopropyl-5-ethyl-6′-fluoro-1′H-1,2′-bibenzo[d]imidazole] | 1 to 100 | 100 to 1000
11 | CCc1ccc2ncn(-c3nc4ccc(F)cc4n3C3CC3)c2c1 [Example 11, 1′-cyclopropyl-6-ethyl-6′-fluoro-1′H-1,2′-bibenzo[d]imidazole] | 1 to 100 | 1000 to 10000
12 | COc1ccc2c(c1)ncn2-c1nc2ccc(F)cc2n1C1CC1 [Example 12, 1′-cyclopropyl-6′-fluoro-5-methoxy-1′H-1,2′-bibenzo[d]imidazole] | 1 to 100 | 100 to 1000
13 | COc1ccc2ncn(-c3nc4ccc(F)cc4n3C3CC3)c2c1 [Example 13, 1′-cyclopropyl-6′-fluoro-6-methoxy-1′H-1,2′-bibenzo[d]imidazole] | 1 to 100 | 100 to 1000
14 | Cc1cccc2c1ncn2-c1nc2ccc(F)cc2n1C1CC1 [Example 14, 1′-cyclopropyl-6′-fluoro-4-methyl-1′H-1,2′-bibenzo[d]imidazole] | 1000 to 10000 | > 10000
15 | Fc1cc2ncn(-c3nc4ccc(F)c(F)c4n3C3CC3)c2cc1F [Example 15, 1′-cyclopropyl-5,6,6′,7′-tetrafluoro-1′H-1,2′-bibenzo[d]imidazole] | 1 to 100 | 1000 to 10000
16 | Fc1cc2nc(-n3cnc4ccccc43)n(C3CC3)c2cc1F [Example 16, 1′-cyclopropyl-5′,6′-difluoro-1′H-1,2′-bibenzo[d]imidazole] | 1 to 100 | 100 to 1000

Row | Compound | IC50 [1] [nM] | IC50 [2] [nM]
17 | Fc1cc2ncn(-c3nc4cc(F)c(F)cc4n3C3CC3)c2cc1F [Example 17, 1′-cyclopropyl-5,5′,6,6′-tetrafluoro-1′H-1,2′-bibenzo[d]imidazole] | 1 to 100 | 1000 to 10000
18 | Fc1ccc2c(c1)ncn2-c1nc2ccc(F)cc2n1C1CC1 [Example 18, 1′-cyclopropyl-5,6′-difluoro-1′H-1,2′-bibenzo[d]imidazole] | 1 to 100 | 100 to 1000
19 | Fc1ccc2ncn(-c3nc4ccc(F)cc4n3C3CC3)c2c1 [Example 19, 1′-cyclopropyl-6,6′-difluoro-1′H-1,2′-bibenzo[d]imidazole] | 1 to 100 | 1000 to 10000
20 | Fc1ccc2nc(-n3cnc4cc(C(F)(F)F)ccc43)n(C3CC3)c2c1 [Example 20, 1′-cyclopropyl-6′-fluoro-5-(trifluoromethyl)-1′H-1,2′-bibenzo[d]imidazole] | 1 to 100 | 100 to 1000
21 | Fc1ccc2nc(-n3cnc4ccc(C(F)(F)F)cc43)n(C3CC3)c2c1 [Example 21, 1′-cyclopropyl-6′-fluoro-6-(trifluoromethyl)-1′H-1,2′-bibenzo[d]imidazole] | 1 to 100 | 1000 to 10000
22 | CCn1c(-n2cnc3cc(F)c(F)cc32)nc2ccc(C#N)cc21 [Example 22, 1′-ethyl-5,6-difluoro-1′H-[1,2′-bibenzo[d]imidazole]-6′-carbonitrile] | 1 to 100 | 1000 to 10000
23 | N#Cc1ccc2c(c1)ncn2-c1nc2cc(F)c(F)cc2n1C1CC1 [Example 23, 1′-cyclopropyl-5′,6′-difluoro-1′H-[1,2′-bibenzo[d]imidazole]-5-carbonitrile] | 1 to 100 | 1000 to 10000
24 | N#Cc1ccc2ncn(-c3nc4cc(F)c(F)cc4n3C3CC3)c2c1 [Example 24, 1′-cyclopropyl-5′,6′-difluoro-1′H-[1,2′-bibenzo[d]imidazole]-6-carbonitrile] | 100 to 1000 | > 10000
25 | N#Cc1ccc2nc(-n3cnc4cc(F)c(F)cc43)n(C3CC3)c2c1 [Example 25, 1′-cyclopropyl-5,6-difluoro-1′H-[1,2′-bibenzo[d]imidazole]-6′-carbonitrile] | 1 to 100 | 1000 to 10000
26 | Fc1cc2ncn(-c3nc4ccc(Cl)cc4n3C3CC3)c2cc1F [Example 26, 6′-chloro-1′-cyclopropyl-5,6-difluoro-1′H-1,2′-bibenzo[d]imidazole] | 1 to 100 | 1000 to 10000
27 | Fc1ccc2nc(-n3cnc4cc(OC(F)(F)F)ccc43)n(C3CC3)c2c1 [Example 27, 1′-cyclopropyl-6′-fluoro-5-(trifluoromethoxy)-1′H-1,2′-bibenzo[d]imidazole] | 1 to 100 | 100 to 1000
28 | Fc1ccc2nc(-n3cnc4ccc(OC(F)(F)F)cc43)n(C3CC3)c2c1 [Example 28, 1′-cyclopropyl-6′-fluoro-6-(trifluoromethoxy)-1′H-1,2′-bibenzo[d]imidazole] | 100 to 1000 | > 10000
29 | Fc1cc2ncn(-c3nc4ccc(Cl)nc4n3C3CC3)c2cc1F [Example 29, 5-chloro-3-cyclopropyl-2-(5,6-difluoro-1H-benzo[d]imidazol-1-yl)-3H-imidazo[4,5-b] pyridine] | 1 to 100 | 1000 to 10000
30 | CS(=O)(=O)N(c1ccc2c(c1)ncn2-c1nc2ccc(F)c(F)c2n1C1CC1)S(C)(=O)=O [Example 30, N-(1′-cyclopropyl-6′,7′-difluoro-1′H-[1,2′-bibenzo[d]imidazol]-5-yl)-N-(methylsulfonyl) methanesulfonamide] | 1000 to 10000 | > 10000
31 | CS(=O)(=O)Nc1ccc2c(c1)ncn2-c1nc2ccc(F)c(F)c2n1C1CC1 [Example 31, N-(1′-cyclopropyl-6′,7′-difluoro-1′H-[1,2′-bibenzo[d]imidazol]-5-yl) methanesulfonamide] | 1 to 100 | > 10000
32 | N#Cc1ccc2nc(-n3cnc4cc(F)c(F)cc43)n(C3CC3)c2n1 [Example 32, 3-cyclopropyl-2-(5,6-difluoro-1H-benzo[d]imidazol-1-yl)-3H-imidaz[4,5-b]pyridine-5-carbonitrile] | 1 to 100 | 1000 to 10000

Source: US12358893B2, “Metalloenzyme inhibitor compounds” (Corxel Pharmaceuticals Hong Kong Limited, priority 2019, dated 2025)
